Starred links: 1 amine or outer side, 2 acyl side, 3 side chain; linkers in the order of their positions; H or OH if unused. Non-standard residues stand in square brackets, D forms with d. Residues, ends and D or L forms follow the SMILES beside them. Groups on a side chain read outwards from the residue. *: point of attachment. C20 diacid = O=C(O)CCCCCCCCCCCCCCCCCCC(=O)*; C18 diacid = O=C(O)CCCCCCCCCCCCCCCCC(=O)*; γGlu = O=C(O)[C@H](CCC(=O)[*:2])N[*:1]; αMeF = C[C@](N)(Cc1ccccc1)C(=O)O; AEEA = NCCOCCOCC(=O)O; Aib = CC(C)(N)C(=O)O

Experimental findings from patent US20250353891A1 (MEDIMMUNE LIMITED, priority 2022, published 2025) are described below.

The target of test [1] is human glucagon receptor (hGCGR) (Homo sapiens, UniProt P47871). Nature of the test: cAMP production (HTRF) in CHO cells expressing hGCGR. Format: cell-based. To be noted: Table 7, peptides modified at position 20; cAMP in CHO hGCGR cells; geometric mean; read-out: hGluc-R EC50. Set-up: expressed in transfected cells. The method in brief:
(§1)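 Read-out: HTRF cAMP (anti-cAMP cryptate donor, cAMP-d2 acceptor in conjugate/lysis buffer), converted to % Delta F and fitted by 4-parameter logistic for EC50. Cell densities were 1×10^5 cells/mL (hGLP-1R) or 2×10^5 cells/mL (hGCGR). Stimulation lasted 30 min at room temperature.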

The target in test [2] is human GLP-1 receptor (hGLP-1R) (Homo sapiens, UniProt P43220). Put plainly: cAMP production (HTRF) in CHO cells expressing hGLP-1R. Set-up: expressed in transfected cells. The class given is cell-based. To be noted: for EC50: Table 7, peptides modified at position 20, cAMP in CHO hGLP-1R cells, geometric mean, read-out: hGLP-1R EC50; for % Relative Potency Ratio: Table 7, % GLP-1R activity relative to GLP-1 / % GlucR activity relative to glucagon. The method in brief:
as §1
Background: Changes in cAMP serve as a functional read-out for many G protein-coupled receptors.

Sequence of human glucagon receptor (hGCGR) (P47871 26-477): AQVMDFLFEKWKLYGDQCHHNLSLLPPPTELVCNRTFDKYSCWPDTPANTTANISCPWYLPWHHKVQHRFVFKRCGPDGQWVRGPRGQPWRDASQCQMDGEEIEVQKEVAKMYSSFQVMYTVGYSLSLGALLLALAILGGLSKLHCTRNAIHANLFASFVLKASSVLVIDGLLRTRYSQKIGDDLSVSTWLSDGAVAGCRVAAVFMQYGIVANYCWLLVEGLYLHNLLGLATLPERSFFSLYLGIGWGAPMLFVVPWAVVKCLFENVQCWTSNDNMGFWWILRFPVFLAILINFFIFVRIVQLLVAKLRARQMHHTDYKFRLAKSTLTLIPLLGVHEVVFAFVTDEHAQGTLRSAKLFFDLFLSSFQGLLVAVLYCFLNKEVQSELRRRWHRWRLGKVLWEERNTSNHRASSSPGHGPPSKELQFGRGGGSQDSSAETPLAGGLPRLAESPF
Sequence of human GLP-1 receptor (hGLP-1R) (P43220 24-463): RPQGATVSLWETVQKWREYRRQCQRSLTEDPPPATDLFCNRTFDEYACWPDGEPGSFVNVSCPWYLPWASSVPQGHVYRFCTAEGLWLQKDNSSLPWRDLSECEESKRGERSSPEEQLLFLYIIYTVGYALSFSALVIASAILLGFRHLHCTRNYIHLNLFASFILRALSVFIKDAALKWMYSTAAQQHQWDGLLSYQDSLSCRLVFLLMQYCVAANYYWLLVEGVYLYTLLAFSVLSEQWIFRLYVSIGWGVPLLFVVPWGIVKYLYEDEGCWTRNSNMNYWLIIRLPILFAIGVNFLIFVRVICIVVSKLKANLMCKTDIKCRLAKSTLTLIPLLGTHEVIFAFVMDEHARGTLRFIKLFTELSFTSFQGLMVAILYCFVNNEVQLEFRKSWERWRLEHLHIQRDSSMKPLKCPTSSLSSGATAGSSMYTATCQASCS

The term EC50 denotes the concentration giving half of the maximal effect. Turning to `CC[C@H](C)[C@H](NC(=O)[C@H](Cc1c[nH]c2ccccc12)NC(=O)[C@H](CCC(=O)O)NC(=O)[C@@H](NC(=O)[C@](C)(Cc1ccccc1)NC(=O)[C@H](CC(=O)O)NC(=O)[C@H](CCCCNC(=O)COCCOCCNC(=O)COCCOCCNC(=O)CC[C@H](NC(=O)CCCCCCCCCCCCCCCCCCC(=O)O)C(=O)O)NC(=O)[C@H](C)NC(=O)[C@H](C)NC(=O)[C@H](CCCNC(=N)N)NC(=O)[C@H](CO)NC(=O)[C@H](CC(=O)O)NC(=O)[C@H](CC(C)C)NC(=O)[C@](C)(Cc1ccccc1)NC(=O)[C@H](CCCCN)NC(=O)[C@H](CO)NC(=O)[C@@H](NC(=O)[C@H](CC(=O)O)NC(=O)[C@H](CO)NC(=O)[C@@H](NC(=O)[C@](C)(Cc1ccccc1)NC(=O)[C@H](CO)NC(=O)CNC(=O)[C@H](Cc1c[nH]cn1)NC(=O)C(C)(C)NC(=O)[C@@H](N)Cc1c[nH]cn1)[C@@H](C)O)C(C)C)C(C)C)C(=O)N[C@@H](C)C(=O)N[C@@H](CC(N)=O)C(=O)N[C@H](C(N)=O)[C@@H](C)O` [Peptide 216] (H-H[Aib]HGS[αMeF]TSDVSK[αMeF]LDSRAAK([AEEA-AEEA-γGlu-C20 diacid])D[αMeF]VEWIANT-NH2), in test [1], the EC50 was found to be 5.67 nM. Besides, in test [2], the EC50 stood at 18.1 nM and the “% Relative Potency Ratio” value is listed as 0.6.

Turning to `CC[C@H](C)[C@H](NC(=O)[C@H](Cc1c[nH]c2ccccc12)NC(=O)[C@H](CCC(N)=O)NC(=O)[C@@H](NC(=O)[C@H](Cc1ccccc1)NC(=O)[C@H](CC(=O)O)NC(=O)[C@H](CCCCNC(=O)COCCOCCNC(=O)COCCOCCNC(=O)CC[C@H](NC(=O)CC[C@H](NC(=O)CCCCCCCCCCCCCCCCCCC(=O)O)C(=O)O)C(=O)O)NC(=O)[C@H](C)NC(=O)C(C)(C)NC(=O)[C@H](CCCNC(=N)N)NC(=O)[C@H](CO)NC(=O)[C@H](CC(=O)O)NC(=O)[C@H](CC(C)C)NC(=O)[C@](C)(Cc1ccccc1)NC(=O)[C@H](CCCCN)NC(=O)[C@H](CO)NC(=O)[C@@H](NC(=O)[C@H](CC(=O)O)NC(=O)[C@H](CO)NC(=O)[C@@H](NC(=O)[C@](C)(Cc1ccccc1)NC(=O)[C@H](CO)NC(=O)CNC(=O)[C@H](Cc1c[nH]cn1)NC(=O)C(C)(C)NC(=O)[C@@H](N)Cc1c[nH]cn1)[C@@H](C)O)C(C)C)C(C)C)C(=O)N[C@@H](C)C(=O)N[C@@H](CC(N)=O)C(=O)N[C@H](C(N)=O)[C@@H](C)O` [Peptide 217] (H-H[Aib]HGS[αMeF]TSDVSK[αMeF]LDSR[Aib]AK([AEEA-AEEA-γGlu-γGlu-C20 diacid])DFVQWIANT-NH2), the EC50 in test [1] worked out at 0.127 nM; in test [2] it was 0.264 nM. In test [2], the “% Relative Potency Ratio” value is recorded as 0.9.

As to `CC[C@H](C)[C@H](NC(=O)[C@H](Cc1c[nH]c2ccccc12)NC(=O)[C@H](CCC(N)=O)NC(=O)[C@@H](NC(=O)[C@H](Cc1ccccc1)NC(=O)[C@H](CC(=O)O)NC(=O)[C@H](CCCCNC(=O)COCCOCCNC(=O)COCCOCCNC(=O)CC[C@H](NC(=O)CC[C@H](NC(=O)CCCCCCCCCCCCCCCCCCC(=O)O)C(=O)O)C(=O)O)NC(=O)[C@H](C)NC(=O)[C@H](C)NC(=O)[C@H](CCCNC(=N)N)NC(=O)[C@H](CO)NC(=O)[C@H](CC(=O)O)NC(=O)[C@H](CC(C)C)NC(=O)[C@](C)(Cc1ccccc1)NC(=O)[C@H](CCCCN)NC(=O)[C@H](CO)NC(=O)[C@@H](NC(=O)[C@H](CC(=O)O)NC(=O)[C@H](CO)NC(=O)[C@@H](NC(=O)[C@](C)(Cc1ccccc1)NC(=O)[C@H](CO)NC(=O)CNC(=O)[C@H](Cc1c[nH]cn1)NC(=O)C(C)(C)NC(=O)[C@@H](N)Cc1c[nH]cn1)[C@@H](C)O)C(C)C)C(C)C)C(=O)N[C@@H](C)C(=O)N[C@@H](CC(N)=O)C(=O)N[C@H](C(=O)NCC(N)=O)[C@@H](C)O` [Peptide 218] (H-H[Aib]HGS[αMeF]TSDVSK[αMeF]LDSRAAK([AEEA-AEEA-γGlu-γGlu-C20 diacid])DFVQWIANTG-NH2), in test [1], the EC50 amounted to 0.423 nM. Besides, in test [2], the EC50 is 0.139 nM and the “% Relative Potency Ratio” value is reported as 6.0.

In the case of `CC[C@H](C)[C@H](NC(=O)[C@H](Cc1c[nH]c2ccccc12)NC(=O)[C@H](CCC(N)=O)NC(=O)[C@@H](NC(=O)[C@H](Cc1ccccc1)NC(=O)[C@H](CC(=O)O)NC(=O)[C@H](CCCCNC(=O)COCCOCCNC(=O)COCCOCCNC(=O)CC[C@H](NC(=O)CC[C@H](NC(=O)CCCCCCCCCCCCCCCCCCC(=O)O)C(=O)O)C(=O)O)NC(=O)[C@H](C)NC(=O)[C@H](C)NC(=O)[C@H](CCCNC(=N)N)NC(=O)[C@H](CO)NC(=O)[C@H](CC(=O)O)NC(=O)[C@H](CC(C)C)NC(=O)[C@](C)(Cc1ccccc1)NC(=O)[C@H](CCCCN)NC(=O)[C@H](CO)NC(=O)[C@@H](NC(=O)[C@H](CC(=O)O)NC(=O)[C@H](CO)NC(=O)[C@@H](NC(=O)[C@](C)(Cc1ccccc1)NC(=O)[C@H](CO)NC(=O)CNC(=O)[C@H](Cc1c[nH]cn1)NC(=O)C(C)(C)NC(=O)[C@@H](N)Cc1c[nH]cn1)[C@@H](C)O)C(C)C)C(C)C)C(=O)N[C@@H](C)C(=O)N[C@@H](CC(N)=O)C(=O)N[C@H](C(=O)NCC(=O)NCC(N)=O)[C@@H](C)O` [Peptide 219] (H-H[Aib]HGS[αMeF]TSDVSK[αMeF]LDSRAAK([AEEA-AEEA-γGlu-γGlu-C20 diacid])DFVQWIANTGG-NH2; N-terminus assumed), the EC50 in test [1] amounted to 0.298 nM. In test [2], the concentration giving a half-maximal response (EC50) is 0.0945 nM and the “% Relative Potency Ratio” value came to 6.2.

As to `CC[C@H](C)[C@H](NC(=O)C(C)(C)NC(=O)[C@H](CCC(N)=O)NC(=O)[C@@H](NC(=O)[C@H](Cc1ccccc1)NC(=O)[C@H](CC(=O)O)NC(=O)[C@H](CCCCNC(=O)COCCOCCNC(=O)COCCOCCNC(=O)CC[C@H](NC(=O)CC[C@H](NC(=O)CCCCCCCCCCCCCCCCCCC(=O)O)C(=O)O)C(=O)O)NC(=O)[C@H](C)NC(=O)C(C)(C)NC(=O)[C@H](CCCNC(=N)N)NC(=O)[C@H](CO)NC(=O)[C@H](CC(=O)O)NC(=O)[C@H](CC(C)C)NC(=O)[C@](C)(Cc1ccccc1)NC(=O)[C@H](CCCCN)NC(=O)[C@H](CO)NC(=O)[C@@H](NC(=O)[C@H](CC(=O)O)NC(=O)[C@H](CO)NC(=O)[C@@H](NC(=O)[C@](C)(Cc1ccccc1)NC(=O)[C@H](CO)NC(=O)CNC(=O)[C@H](Cc1c[nH]cn1)NC(=O)C(C)(C)NC(=O)[C@@H](N)Cc1c[nH]cn1)[C@@H](C)O)C(C)C)C(C)C)C(=O)N[C@@H](C)C(=O)N[C@@H](CC(N)=O)C(=O)N[C@H](C(N)=O)[C@@H](C)O` [Peptide 220] (H-H[Aib]HGS[αMeF]TSDVSK[αMeF]LDSR[Aib]AK([AEEA-AEEA-γGlu-γGlu-C20 diacid])DFVQ[Aib]IANT-NH2), the EC50 amounted to 0.405 nM in test [1] and 0.24 nM in test [2]. Besides, the “% Relative Potency Ratio” value in test [2] is on record as 3.3.

Consider `CC[C@H](C)[C@H](NC(=O)C(C)(C)NC(=O)[C@H](CCC(N)=O)NC(=O)[C@@H](NC(=O)[C@H](Cc1ccccc1)NC(=O)[C@H](CC(=O)O)NC(=O)[C@H](CCCCNC(=O)COCCOCCNC(=O)COCCOCCNC(=O)CC[C@H](NC(=O)CC[C@H](NC(=O)CCCCCCCCCCCCCCCCCCC(=O)O)C(=O)O)C(=O)O)NC(=O)[C@H](C)NC(=O)[C@H](C)NC(=O)[C@H](CCCNC(=N)N)NC(=O)[C@H](CO)NC(=O)[C@H](CC(=O)O)NC(=O)[C@H](CC(C)C)NC(=O)[C@](C)(Cc1ccccc1)NC(=O)[C@H](CCCCN)NC(=O)[C@H](CO)NC(=O)[C@@H](NC(=O)[C@H](CC(=O)O)NC(=O)[C@H](CO)NC(=O)[C@@H](NC(=O)[C@](C)(Cc1ccccc1)NC(=O)[C@H](CO)NC(=O)CNC(=O)[C@H](Cc1c[nH]cn1)NC(=O)C(C)(C)NC(=O)[C@@H](N)Cc1c[nH]cn1)[C@@H](C)O)C(C)C)C(C)C)C(=O)N[C@@H](C)C(=O)N[C@@H](CC(N)=O)C(=O)N[C@H](C(N)=O)[C@@H](C)O` [Peptide 221] (H-H[Aib]HGS[αMeF]TSDVSK[αMeF]LDSRAAK([AEEA-AEEA-γGlu-γGlu-C20 diacid])DFVQ[Aib]IANT-NH2; N-terminus assumed), for which the EC50 in test [1] amounted to 0.123 nM; in test [2] it was 0.122 nM. In test [2], the “% Relative Potency Ratio” value was 2.0.

As for `CC[C@H](C)[C@H](NC(=O)[C@H](CO)NC(=O)[C@H](CCC(N)=O)NC(=O)[C@@H](NC(=O)[C@H](Cc1ccccc1)NC(=O)[C@H](CC(=O)O)NC(=O)[C@H](CCCCNC(=O)COCCOCCNC(=O)COCCOCCNC(=O)CC[C@H](NC(=O)CCCCCCCCCCCCCCCCC(=O)O)C(=O)O)NC(=O)[C@H](C)NC(=O)[C@H](C)NC(=O)[C@H](CCC(N)=O)NC(=O)[C@H](CO)NC(=O)[C@H](CC(=O)O)NC(=O)[C@H](CC(C)C)NC(=O)[C@](C)(Cc1ccccc1)NC(=O)[C@H](CCCCN)NC(=O)[C@H](CO)NC(=O)[C@@H](NC(=O)[C@H](CC(=O)O)NC(=O)[C@H](CO)NC(=O)[C@@H](NC(=O)[C@](C)(Cc1ccccc1)NC(=O)[C@H](CO)NC(=O)CNC(=O)[C@H](Cc1c[nH]cn1)NC(=O)C(C)(C)NC(=O)[C@@H](N)Cc1c[nH]cn1)[C@@H](C)O)C(C)C)C(C)C)C(=O)N[C@@H](C)C(=O)N[C@@H](CC(N)=O)C(=O)N[C@H](C(N)=O)[C@@H](C)O` [Peptide 222] (H-H[Aib]HGS[αMeF]TSDVSK[αMeF]LDSQAAK([AEEA-AEEA-γGlu-C18 diacid])DFVQSIANT-NH2), the EC50 in test [1] came out at 0.244 nM. For the same molecule, in test [2], the EC50 is 0.151 nM and the “% Relative Potency Ratio” value amounted to 3.2.
